Among the data in US12077503B2, “Substituted cyclic amides and their use as herbicides” (FMC CORPORATION, priority 2015, dated 2024) are pest or weed control and plant injury values, retold here.

Common to all, as to format: in vivo
Assay [1] concerns ivy-leaved morning glory (Ipomoea hederacea). As to the kind of experiment: Test G Pre-Emergence Protocol. The note with it: Ipomoea, pre-emergence, 312 h, evaluated after 13 days; for pest or weed control at 15.625 g/ha: 15.625 g ai/ha, read-out: Morning-glory, Ivy-leaved damage rating (100=total damage to plant; 0=no damage to plant); for pest or weed control at 62.5 g/ha: 62.5 g ai/ha, 100=total damage to plant, 0=no damage to plant, read-out: plant damage rating, Morningglory, Ivy-leaved; for pest or weed control at 250 g/ha: 250 g ai/ha, read-out: Morningglory, Ivy-leaved damage rating (100=total damage to plant; 0=no damage to plant). In outline:
(§1)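 Pre-emergence spray, 15.625/62.5/250 g/ha, vehicle acetone:water 50:50 + 0.5% Tween 20, applied 1 d after sowing. Glasshouse 24/16° C, 14 h light, 65% RH, watered twice daily. Visual damage rating at 13 d, 0–100 scale.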

In assay [2] the test system is redroot pigweed (Amaranthus retroflexus). Briefly: Test G Pre-Emergence Protocol. The note with it: Amaranthus retroflexus, pre-emergence, 312 h, evaluated after 13 days; for pest or weed control at 15.625 g/ha: 15.625 g ai/ha; for pest or weed control at 15.625 g/ha / pest or weed control at 250 g/ha: read-out: Pigweed, Redroot damage rating (100=total damage to plant; 0=no damage to plant); for pest or weed control at 62.5 g/ha: 62.5 g ai/ha, 100=total damage to plant, 0=no damage to plant, read-out: plant damage rating, Pigweed, Redroot; for pest or weed control at 250 g/ha: 250 g ai/ha. The method in brief: as §1

Assay [3] deals with giant foxtail (Setaria faberi). As to the kind of experiment: Test G Pre-Emergence Protocol. The conditions noted are these: Setaria faberi, pre-emergence, 312 h, evaluated after 13 days; for pest or weed control at 15.625 g/ha: 15.625 g ai/ha; for pest or weed control at 15.625 g/ha / pest or weed control at 250 g/ha: read-out: Foxtail, Giant damage rating (100=total damage to plant; 0=no damage to plant); for pest or weed control at 62.5 g/ha: 62.5 g ai/ha, 100=total damage to plant, 0=no damage to plant, read-out: plant damage rating, Foxtail, Giant; for pest or weed control at 250 g/ha: 250 g ai/ha. In outline: as §1

Assay [4] has as its system barnyardgrass (Echinochloa crus-galli). As to the kind of experiment: Test G Pre-Emergence Protocol. The conditions noted are these: Echinochloa crus-galli, pre-emergence, 312 h, evaluated after 13 days; for pest or weed control at 15.625 g/ha: 15.625 g ai/ha, read-out: Barnyard grass damage rating (100=total damage to plant; 0=no damage to plant); for pest or weed control at 62.5 g/ha: 62.5 g ai/ha, 100=total damage to plant, 0=no damage to plant, read-out: plant damage rating, Barnyardgrass; for pest or weed control at 250 g/ha: 250 g ai/ha, read-out: Barnyardgrass damage rating (100=total damage to plant; 0=no damage to plant). The method in brief: as §1

The test system of assay [5] is corn (Zea mays). As to the kind of experiment: Test G Pre-Emergence Protocol. The conditions noted are these: Zea mays, pre-emergence, 312 h, evaluated after 13 days; for plant injury at 15.625 g/ha: 15.625 g ai/ha; for plant injury at 15.625 g/ha / plant injury at 250 g/ha: read-out: Corn damage rating (100=total damage to plant; 0=no damage to plant); for plant injury at 62.5 g/ha: 62.5 g ai/ha, 100=total damage to plant, 0=no damage to plant, read-out: plant damage rating, Corn; for plant injury at 250 g/ha: 250 g ai/ha. In outline: as §1

Assay [6] concerns velvetleaf (Abutilon theophrasti). As to the kind of experiment: Test G Pre-Emergence Protocol. The conditions noted are these: Abutilon theophrasti, pre-emergence, 312 h, evaluated after 13 days; for pest or weed control at 15.625 g/ha: 15.625 g ai/ha; for pest or weed control at 15.625 g/ha / pest or weed control at 250 g/ha: read-out: Velvetleaf damage rating (100=total damage to plant; 0=no damage to plant); for pest or weed control at 62.5 g/ha: 62.5 g ai/ha, 100=total damage to plant, 0=no damage to plant, read-out: plant damage rating, Velvetleaf; for pest or weed control at 250 g/ha: 250 g ai/ha. The method in brief:
as §1

Assay [7] has as its system wheat (Triticum aestivum). As to the kind of experiment: Test A postemergence. The note with it: Triticum aestivum, post-emergence, 240 h, Postemergence; for plant injury at 125 g/ha: 125 g ai/ha, visual rating about 10 d after treatment, read-out: Wheat plant response rating (0 to 100 scale); for plant injury at 500 g/ha: 500 g ai/ha, visual injury, 0 to 100 scale (0 no effect, 100 complete control), approx. 10 d, read-out: Plant response rating, Wheat. In outline: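 Seeded soil received test chemicals as a preemergence directed spray, and seedlings at one to two leaves, 2–10 cm tall, received them postemergence, in a non-phytotoxic, surfactant-containing solvent mixture. Pots were held in a greenhouse for approximately 10 d, then rated for injury from 0, no effect, to 100, complete control.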

Each structure is given as a SMILES string.

For the compound `CN1C[C@@H](c2ccc(C(F)(F)F)cc2)[C@H](C(=O)Nc2ccccc2)C1=O` (racemic) [Compound 1404], in assay [1], the pest or weed control at 15.625 g/ha worked out at 0%, the pest or weed control at 62.5 g/ha was 10% and the pest or weed control at 250 g/ha amounted to 20%. In assay [2], the pest or weed control at 15.625 g/ha was 0%, the pest or weed control at 62.5 g/ha was 0% and the pest or weed control at 250 g/ha came to 20%. Besides, in assay [3], the pest or weed control at 15.625 g/ha worked out at 0%, the pest or weed control at 62.5 g/ha worked out at 70% and the pest or weed control at 250 g/ha was 80%. In assay [4], the pest or weed control at 15.625 g/ha was 0%, the pest or weed control at 62.5 g/ha turned out to be 20% and the pest or weed control at 250 g/ha came out at 70%. Also, in assay [5], the plant injury at 15.625 g/ha is 0%, the plant injury at 62.5 g/ha amounted to 0% and the plant injury at 250 g/ha is 0%. Further, in assay [6], the pest or weed control at 15.625 g/ha is 0%, the pest or weed control at 62.5 g/ha came out at 0% and the pest or weed control at 250 g/ha is 0%.

In the case of `CN1C[C@H](c2ccc3c(c2)CCO3)[C@@H](C(=O)Nc2cccc(F)c2F)C1=O` (racemic) [Compound 1499], in assay [1], the pest or weed control at 15.625 g/ha turned out to be 0%, the pest or weed control at 62.5 g/ha stood at 0% and the pest or weed control at 250 g/ha worked out at 100%. Moreover, in assay [2], the pest or weed control at 62.5 g/ha is 0% and the pest or weed control at 250 g/ha is 0%. For the same compound, in assay [3], the pest or weed control at 15.625 g/ha came out at 0%, the pest or weed control at 62.5 g/ha came out at 80% and the pest or weed control at 250 g/ha is 80%. Further, in assay [4], the pest or weed control at 15.625 g/ha came out at 0%, the pest or weed control at 62.5 g/ha amounted to 80% and the pest or weed control at 250 g/ha was 90%. In assay [5], the plant injury at 15.625 g/ha is 0%, the plant injury at 62.5 g/ha is 0% and the plant injury at 250 g/ha was 80%. Moreover, in assay [6], the pest or weed control at 15.625 g/ha is 0%, the pest or weed control at 62.5 g/ha is 0% and the pest or weed control at 250 g/ha came to 30%.

As to `CN1C[C@H](c2ccc3occc3c2)[C@@H](C(=O)Nc2cccc(F)c2F)C1=O` (racemic) [Compound 1500], in assay [1], the pest or weed control at 15.625 g/ha is 0% and the pest or weed control at 250 g/ha was 20%. In assay [2], the pest or weed control at 15.625 g/ha turned out to be 0%, the pest or weed control at 62.5 g/ha amounted to 0% and the pest or weed control at 250 g/ha was 80%. In addition, in assay [3], the pest or weed control at 15.625 g/ha was 60%, the pest or weed control at 62.5 g/ha was determined as 80% and the pest or weed control at 250 g/ha is 80%. In assay [4], the pest or weed control at 15.625 g/ha was found to be 30%, the pest or weed control at 62.5 g/ha is 90% and the pest or weed control at 250 g/ha is 90%. Further, in assay [5], the plant injury at 15.625 g/ha came out at 0%, the plant injury at 62.5 g/ha turned out to be 0% and the plant injury at 250 g/ha was 30%. Also, in assay [6], the pest or weed control at 15.625 g/ha is 0%, the pest or weed control at 62.5 g/ha is 0% and the pest or weed control at 250 g/ha is 20%.

Consider `Cc1c(NC(=O)[C@@H]2C(=O)N(C)C[C@H]2c2ccc(C(F)(F)F)cc2)ccc(F)c1F` (racemic) [Compound 1502], for which the pest or weed control at 15.625 g/ha in assay [1] is 0%; in assay [2], 0%; in assay [3], 60%; in assay [4], 20%; in assay [6], 0%. The pest or weed control at 62.5 g/ha in assay [1] was 0%; in assay [2], 20%; in assay [3], 90%; in assay [4], 60%; in assay [6] it was 0%. For the same compound, the pest or weed control at 250 g/ha came to 0% in assay [1]; 70% in assay [2]; 90% in assay [3]; 80% in assay [4]; 10% in assay [6]. Besides, in assay [5], the plant injury at 15.625 g/ha was found to be 0%. Also, the plant injury at 62.5 g/ha in assay [5] turned out to be 0%. Further, the plant injury at 250 g/ha in assay [5] was found to be 50%.

For `Cc1ccncc1NC(=O)[C@@H]1C(=O)N(C)C[C@H]1c1ccc(C(F)(F)F)cc1` (racemic) [Compound 1505], in assay [1], the pest or weed control at 15.625 g/ha was found to be 0% and the pest or weed control at 250 g/ha was 0%. In addition, in assay [2], the pest or weed control at 15.625 g/ha worked out at 0%, the pest or weed control at 62.5 g/ha came out at 0% and the pest or weed control at 250 g/ha came out at 0%. Moreover, in assay [3], the pest or weed control at 15.625 g/ha was determined as 0%, the pest or weed control at 62.5 g/ha worked out at 10% and the pest or weed control at 250 g/ha worked out at 30%. Moreover, in assay [4], the pest or weed control at 15.625 g/ha came out at 0%, the pest or weed control at 62.5 g/ha was determined as 0% and the pest or weed control at 250 g/ha turned out to be 20%. Further, in assay [5], the plant injury at 15.625 g/ha worked out at 0%, the plant injury at 62.5 g/ha turned out to be 0% and the plant injury at 250 g/ha was 0%. Moreover, in assay [6], the pest or weed control at 15.625 g/ha came out at 0%, the pest or weed control at 62.5 g/ha came out at 0% and the pest or weed control at 250 g/ha was 0%.

With `CN1C[C@@H](c2ccc(C(F)(F)F)cc2)[C@H](C(=O)Nc2cc(C(F)(F)F)nn2C)C1=O` (racemic) [Compound 1510], in assay [1], the pest or weed control at 15.625 g/ha was 0%, the pest or weed control at 62.5 g/ha turned out to be 0% and the pest or weed control at 250 g/ha worked out at 0%. Also, in assay [2], the pest or weed control at 62.5 g/ha amounted to 0% and the pest or weed control at 250 g/ha was found to be 0%. For the same compound, in assay [3], the pest or weed control at 15.625 g/ha worked out at 0%, the pest or weed control at 62.5 g/ha was determined as 0% and the pest or weed control at 250 g/ha was found to be 0%. Also, in assay [4], the pest or weed control at 15.625 g/ha came out at 0%, the pest or weed control at 62.5 g/ha came out at 0% and the pest or weed control at 250 g/ha was 0%. In addition, in assay [5], the plant injury at 15.625 g/ha is 0%, the plant injury at 62.5 g/ha was 0% and the plant injury at 250 g/ha stood at 0%. Further, in assay [6], the pest or weed control at 15.625 g/ha worked out at 0%, the pest or weed control at 62.5 g/ha worked out at 0% and the pest or weed control at 250 g/ha amounted to 0%.

Turning to `O=C1NCC(c2ccccc2)C1C(=O)Nc1cccnc1` (stereo not drawn) [Compound 1356], in assay [7], the plant injury at 125 g/ha came to 0% and the plant injury at 500 g/ha worked out at 0%.

Take `O=C1NCC(c2ccccc2)C1C(=O)Nc1ccccc1Oc1ccccc1` (stereo not drawn) [Compound 1357]: in assay [7], the plant injury at 125 g/ha was found to be 0% and the plant injury at 500 g/ha came to 0%.
